One experiment has as its system Human SCCA1. Nature of the experiment: SCCA-1 expression-inhibiting effect in cultured human keratinocytes (quantitative PCR, G3PDH internal standard). Type of experiment: cell-based. As to conditions: 24 hours after addition at different concentrations, vs no-drug negative control, FIG. 1-3. On the procedure:
SCCA-1 expression-inhibiting effects of carboxyamide derivatives in cell line:
Human keratinocytes were cultured, and carboxyamide derivatives at different concentrations were added at 60-70% confluency. The carboxyamide derivatives used were the following:
After 24 hours, the RNA was obtained, and then it was subjected to a quantitative PCR analysis by ABI PRISM 7900HT Sequence Detector System (Taqman PE) (Applied Biosystems) with using a primer/probe combination shown below, thereby the amount of SCCA gene expression was measured (using G3PDH as the internal standard). • Human SCCA1 • Forward primer: 5′-GTGCTATCTGGAGTCCT-3′ (SEQ ID NO: 1) • Reverse primer: 5′-CTGTTGTTGCCAGCAA-3′ (SEQ ID NO: 2) • Probe: 5′-CATCACCTACTTCAACT-3′ (SEQ ID NO: 3) • Human G3PDH • Forward primer: 5′-GAAGGTGAAGGTCGGAGTC-3′ (SEQ ID NO: 4) • Reverse primer: 5′-[…]-3′ (SEQ ID NO: 5) • Probe: 5′-[…]-3′ (SEQ ID NO: 6)

The test system of a further experiment is SCAA-1. The conditions noted are these: known from Japanese Patent Application No. 2008-903571; cited from earlier work.
A further experiment relates to SCAA-2. The conditions noted are these: known from Japanese Patent Application No. 2008-903571; cited from earlier work.

Take `NC(=O)NC1NC(=O)NC1=O` (stereo not shown) [allantoin]: in the experiment with Human SCCA1, the SCCA-1 gene expression entry is on record as “significant dose-dependent reduction in SCCA-1 gene expression”.
For the compound `O=C1CCCN1CCO` [1-(2-hydroxyethyl)-2-pyrrolidone], the SCCA-1 gene expression entry with Human SCCA1 is given as “significant dose-dependent reduction in SCCA-1 gene expression”.
As to `O=C1NCCN1CCO` [1-(2-hydroxyethyl)-2-imidazolidinone], the SCCA-1 gene expression result in the experiment with Human SCCA1 is listed as “significant dose-dependent reduction in SCCA-1 gene expression”.
With `NC(N)=O` [urea], the SCCA-1 gene expression result in the experiment on Human SCCA1 is recorded as “significant dose-dependent reduction in SCCA-1 gene expression”.
Regarding `O=C(O)CCN1CCCCC1` [1-piperidinepropionic acid (1-PP), 1-piperidinepropionic acid], in the experiment on SCAA-1, the “gene expression-inhibiting effect on SCAA-1” value is recorded as “gene expression-inhibiting effect”. Further, the “gene expression-inhibiting effect on SCAA-2” value in the experiment with SCAA-2 is recorded as “gene expression-inhibiting effect”.
For the compound `O=C1NCCN1` [ethyleneurea], the SCCA-1 gene expression result in the experiment with Human SCCA1 was “significant dose-dependent reduction in SCCA-1 gene expression”.

The values are drawn from US20120283302A1, “SCCA-1 PRODUCTION INHIBITOR HAVING A CARBOXAMIDE DERIVATIVE AND/OR A SALT THEREOF AS AN ACTIVE INGREDIENT” (SHISEIDO COMPANY, LTD, priority 2009, published 2012).
